For 33 compounds, IC50 and inhibition results are on record in ChEMBL document CHEMBL1129896, “New non peptidic C5a receptor antagonists” (Bioorg Med Chem Lett, 1997).

By IC50 is commonly meant the midpoint of a concentration-inhibition curve. A low value points to higher potency. A word on the inhibition: it is the relative decrease from the control value, in per cent. A lower inhibition goes with little suppression.

The target in experiment [1] is T1, C5a anaphylatoxin chemotactic receptor 1 (Homo sapiens, UniProt P21730).
T1 sequence (P21730 whole entry): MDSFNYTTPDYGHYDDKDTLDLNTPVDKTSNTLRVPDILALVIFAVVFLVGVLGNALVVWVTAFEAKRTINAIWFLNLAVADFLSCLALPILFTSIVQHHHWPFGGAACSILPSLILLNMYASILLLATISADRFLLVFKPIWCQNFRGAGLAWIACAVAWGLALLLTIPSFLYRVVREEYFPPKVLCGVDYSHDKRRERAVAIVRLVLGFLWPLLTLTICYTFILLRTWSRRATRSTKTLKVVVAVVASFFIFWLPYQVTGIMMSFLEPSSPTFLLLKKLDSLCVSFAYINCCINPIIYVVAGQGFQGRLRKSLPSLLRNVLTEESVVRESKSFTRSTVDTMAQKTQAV
In words: Binding affinity against C5a anaphylatoxin chemotactic receptor assayed on human monocyte cell line U937. Type of experiment: cell-based, U-937.

Experiment [2] concerns the target T2, C5a anaphylatoxin chemotactic receptor 1 (Homo sapiens) (UniProt P21730).
T2 sequence (whole entry): T1 sequence (P21730 whole entry)
In words: Tested in vitro for the inhibition against C5a anaphylatoxin chemotactic receptor assayed on human monocyte cell line U937; Inactive at 30 uM. The format is cell-based. The conditions noted are these: U-937.

For experiment [3], the target named is T2, C5a anaphylatoxin chemotactic receptor 1 (Homo sapiens). In words: Tested in vitro for the inhibition against C5a anaphylatoxin chemotactic receptor assayed on human monocyte cell line U937 at 30 uM. The note with it: U-937. The format is cell-based.
In experiment [4] the target is T1, C5a anaphylatoxin chemotactic receptor 1. The experiment in a line: Compound was evaluated for the antagonistic activity against C5a anaphylatoxin chemotactic receptor in human neutrophil C5a stimulated respiratory burst assay. Type of experiment: functional.

Where only a bound is given, the exact number is not on record here.

For `CNC(N)=Nc1ccc(OCc2ccccc2)c(-c2ccc(OC)cc2)c1`, the IC50 in experiment [1] is 54 µM. Take `CNC(=N)Nc1ccc(OCc2ccccc2)c(-c2ccccc2OC)c1`: the inhibition in experiment [2] was below 20%.

For the compound `CCCCOc1ccc(NC(=N)NC)cc1OCc1ccccc1`, in experiment [1], the IC50 was determined as 30 µM. Take `CNC(=N)Cc1ccc(OCc2ccccc2)c(OCc2ccccc2)c1`: the inhibition in experiment [2] was below 20%.

In experiment [1], `CNC(N)=Nc1ccc(OCCCc2ccccc2)c(OCc2ccccc2)c1` registered an IC50 of 6 µM. This counts as single-digit micromolar. In experiment [2], `NCc1ccc(OCc2ccccc2)c(OCc2ccccc2)c1` registered an inhibition below 20%. In experiment [1], `CNC(N)=Nc1ccc(OCCCCc2ccccc2)c(OCc2ccccc2)c1` returned an IC50 of 4 µM.

On to `CNC(N)=Nc1ccc(OCCc2ccccc2)c(OCc2ccccc2)c1`, for which the IC50 in experiment [1] stood at 7.5 µM. In experiment [1], `C/N=C(/N)Nc1ccc(OCCC2CCCCC2)c(-c2ccccc2)c1` had an IC50 of 1 µM.

Turning to `CNC(=N)Nc1ccc(OC)c(OCc2ccccc2)c1`, the inhibition in experiment [3] is 20%. Take `N=C(N)Nc1ccc(OCc2ccccc2)c(OCc2ccccc2)c1`: in experiment [1], the IC50 was above 100 µM. `CC(=N)Nc1ccc(OCc2ccccc2)c(OCc2ccccc2)c1` displayed an inhibition in experiment [2] below 20%. Turning to `C/N=C(/N)Nc1ccc(OCc2ccccc2)c(-c2cccs2)c1`, in experiment [1], the IC50 was 9 µM. The compound `CNC(N)=Nc1ccc(OCc2ccccc2)c(OC2CCCC2)c1` gave an IC50 in experiment [1] of 25 µM. Still for that read-out and setting: in the case of `CNC(N)=Nc1ccc(OCc2ccccc2)c(-c2ccc(Cl)cc2)c1` it was 50 µM. Take `C/N=C(/N)Nc1ccc(Oc2ccccc2)c(OCc2ccccc2)c1`: the inhibition in experiment [3] came out at 32%. In experiment [1], `C/N=C(/N)Nc1ccc(OCc2ccccc2)c(-c2cccc(F)c2)c1` showed a half-maximal inhibitory concentration (IC50) of 8 µM. For the compound `CC/N=C(\N)Nc1ccc(OCc2ccccc2)c(OCc2ccccc2)c1`, the inhibition in experiment [3] was found to be 40%. Compound `Nc1ccc(OCc2ccccc2)c(OCc2ccccc2)c1` came in with an inhibition in experiment [2] below 20%. The compound `C/N=C(/N)Nc1ccc(OCC2CCCCC2)c(OCc2ccccc2)c1` displayed an IC50 in experiment [1] of 8 µM.

`CNC(N)=Nc1ccc(OCc2ccccc2)c(-c2ccccc2)c1` yielded an IC50 in experiment [1] of 2 µM. In the case of `C/N=C(/N)Nc1ccc(OCc2ccccc2)c(-c2ccc(F)cc2)c1`, the inhibition in experiment [3] came out at 20%. Consider `C/N=C(\N)Nc1ccc(OCc2ccccc2)c(OCc2ccccc2)c1`, for which the half-inhibitory concentration (IC50) in experiment [1] came to 30 µM. In turn, `CNC(N)=Nc1ccc(OCCc2ccccc2)c(-c2ccccc2)c1` registered an IC50 in experiment [4] of 800 nM. `C/N=C(/N)Nc1ccc(OCc2ccccc2)c(Oc2ccccc2)c1` gave an IC50 in experiment [1] of 4 µM. That is a single-digit micromolar value. The same measure, in the same setting: in the case of `CNC(=N)Nc1ccc(OCc2ccccc2)c(-c2cccc(OC)c2)c1` it was 9 µM. Compound `C/N=C(/N)Nc1ccc(OCc2ccccc2)c(OCCc2ccccc2)c1` returned an inhibition in experiment [2] below 20%.

As to `CNC(N)=Nc1ccc(OCCCc2ccccc2)c(-c2ccccc2)c1`, the IC50 in experiment [1] turned out to be 1 µM. As for `C/N=C(/N)c1ccc(OCc2ccccc2)c(OCc2ccccc2)c1`, the inhibition in experiment [2] was below 20%. As to `N=C(N)NCc1ccc(OCc2ccccc2)c(OCc2ccccc2)c1`, the inhibition in experiment [2] was below 20%. As for `CNC(N)=Nc1ccc(OCC2CCCCC2)c(-c2ccccc2)c1`, in experiment [1], the IC50 is 3 µM. On the same count and under the same terms, in the case of `CNC(N)=Nc1ccc(OCCC2CCCCC2)c(OCc2ccccc2)c1` it was 9 µM. Regarding `C/N=C(/N)Nc1ccc(OCc2ccccc2)c(-c2cccc3ccccc23)c1`, the IC50 in experiment [1] turned out to be 4.5 µM. Compared with the last compound, the IC50 is about 2-fold lower.
